Reference: patent US9988359B2, “Herbicidally active benzoic acid amides” (BAYER CROPSCIENCE AKTIENGESELLSCHAFT, priority 2014, dated 2018)

What was measured:
Assay in all cases: Post-emergence herbicidal action against harmful plants
Format in all cases: in vivo
SETVI Setaria viridis = conditions: dosage 80 g/ha, assessed visually after about 3 weeks, 100% = plants have died
Experimental: (§1) SETVI Setaria viridis Seeds of monocotyledonous and dicotyledonous weed and crop plants are laid out in sandy loam in wood-fiber pots, covered with soil and cultivated in a greenhouse under good growth conditions. 2 to 3 weeks after sowing, the test plants are treated at the one-leaf stage. The compounds of the invention, formulated in the form of wettable powders (WP) or as emulsion concentrates (EC), are then sprayed onto the green parts of the plants in the form of an aqueous suspension or emulsion at a water application rate equating to 600 to 800 l/ha, with addition of 0.2% wetting agent. After the test plants have been left to stand in the greenhouse under optimal growth conditions for about 3 weeks, the action of the preparations is assessed visually in comparison to untreated controls (herbicidal action in percent (%): 100% activity=the plants have died, 0% activity=like control plants).

[1] = test system: AMARE Amaranthus retroflexus; conditions: dosage 80 g/ha, assessed visually after about 3 weeks, 100% = plants have died
Experimental: as §1, with “AMARE Amaranthus retroflexus PHBPU Pharbitis purpureum” for “SETVI Setaria viridis”

[2] = test system: PHBPU Pharbitis purpureum; conditions: dosage 20 g/ha
Experimental: as §1, with “AMARE Amaranthus retroflexus PHBPU Pharbitis purpureum” for “SETVI Setaria viridis”

[3] = assessed visually after about 3 weeks, 100% = plants have died
[4] = visual scoring after about 3 weeks vs untreated controls (100% = plants have died, 0% = like control plants)

`Cc1nonc1NC(=O)c1ccc(C#N)c(S(C)(=O)=O)c1C` was tested, and the “Activity against SETVI” value (SETVI Setaria viridis) was 0%.

For `Cc1c(C(=O)Nc2ncnn2C)ccc(Cl)c1S(C)(=O)=O`, the “Activity against AMARE” value [1] was 60%.

`Cc1ccc(C(=O)Nc2ncnn2C)c(C)c1S(C)(=O)=O` was tested, and the “Activity against AMARE” value [1] was 90%.

`Cc1ccc(C(=O)Nc2ncnn2C)c(Br)c1S(C)(=O)=O` was tested, and the “Activity against AMARE” value [1] was 60%.

`Cc1ccc(C(=O)Nc2ncnn2C)c(C)c1` was tested, and the “Activity against AMARE” value [1] was 0%.

With `Cc1ccc(C(=O)Nc2ncnn2C)c(Br)c1[S+](C)[O-]` (stereo not shown) the “Activity against AMARE” value [1] was 70%.

`COSc1c(C)ccc(C(=O)Nc2nnc(C)o2)c1C` was tested, and the “Activity against PHBPU” value [2, 3] was 60%.

For `Cc1ccc(C(=O)Nc2ncnn2C)c(C)c1[S+](C)[O-]` (stereo not shown), the “Activity against AMARE” value [1] was 90%.

With `CSc1c(C)ccc(C(=O)Nc2ncnn2C)c1Br` the “Activity against AMARE” value [1] was 70%.

`Cc1ccc(C(=O)Nc2nonc2C)c(C)c1S(C)(=O)=O` [drawing 24] was tested, and the “Activity against SETVI” value (SETVI Setaria viridis) was 40%.

`CSc1c(C)ccc(C(=O)Nc2nnc(C)o2)c1Br` was tested, and the “Activity against PHBPU” value [2, 4] was 0%.

`CSc1c(C)ccc(C(=O)Nc2ncnn2C)c1C` was tested, and the “Activity against AMARE” value [1] was 90%.

For `CSc1c(Cl)ccc(C(=O)Nc2nonc2C)c1C`, the “Activity against SETVI” value (SETVI Setaria viridis) was 0%.

For `CSc1c(Br)ccc(C(=O)Nc2nnc(C)o2)c1C`, the “Activity against PHBPU” value [2, 4] was 10%.

`CSc1c(C)ccc(C(=O)Nc2nnc(C)o2)c1C` was tested, and the “Activity against PHBPU” value [2, 4] was 60%.

In the case of `COSc1c(C)ccc(C(=O)Nc2nnc(C)o2)c1Br`, the “Activity against PHBPU” value [2, 3] is reported as 40%.

`Cc1ccc(C(=O)Nc2nonc2C)c(C)c1S(C)(=O)=O` [drawing 27] was tested, and the “Activity against SETVI” value (SETVI Setaria viridis) was 80%.

With `Cc1nonc1NC(=O)c1ccc(C(F)(F)F)c(S(C)(=O)=O)c1C` the “Activity against SETVI” value (SETVI Setaria viridis) was 40%.

For `CSc1c(C)ccc(C(=O)Nc2nonc2C)c1C`, the “Activity against SETVI” value (SETVI Setaria viridis) was 0%.
